Where no end group is shown, it is not given here.
Test system: D2F2 WT tumor cells
Assay: D2F2 WT tumor challenge in Balb/c mice
Assay type: in vivo
Description: Balb/c mice 6-8 weeks old, were immunized with G1 and G2 mice were treated with anti-PD-1 mAb (29F.1A12) (G1) or anti-PD-L1 mAb (10F.9G2) (G2 or with MVF-PD-L1 vaccine constructs [PD-L1(92-110)(G3) PD-L1(130-147)(G4)] prior to tumor challenge. Similarly, G10, G11 and G12 are control groups and were not treated prior to tumor cell challenge. G13, G14 and G15 mice were immunized with 100 ug MVF-HER-2(266-296)+100 ug MVF-HER-2(597-626)+ISA720 per mouse for G13, 100 ug MVF-PD-1 (92-110)+100 ug MVF-HER-2(266-296)+100 ug MVF-HER-2(597-626)+ISA720 per mouse for G14 and 100 ug MVF-PD-L1 (130-147)+100 ug MVF-HER-2(266-296)+100 ug MVF-HER-2(597-626)+ISA720 per mouse for G15. The mice were immunized up to 4 times before tumor challenge. […] All the mice had been monitored at least twice per week, and the tumors were measured with calipers as data indicated.
The tumor volumes were measured by calipers and calculated by formula: (length×width2)/2. […] All the peptides immunized groups of mice are shown with less tumor burden than PBS group and mAbs treated groups as well.
G0, G1 and G2 are control groups, mice in these groups were not treated before tumor cells challenge. Following challenge with D2F2 WT tumor cells, G0 mice were treated with PBS (i.p.) twice per week start from day 2 post challenge served as negative control, G1 and G2 mice were treated with anti-PD-1 mAb (29F.1A12) or anti-PD-L1 mAb (10F.9G2), respectively. Treatment for G1 and G2 mouse groups was also started from day 2 post tumor challenge, with 100 ug administered/mouse twice a week. G1 and G2 served as positive control. […] All the mice had been monitored at least twice per week, and the tumors were measured with calipers as data indicated (FIG. 26).
Mice were immunized with designed peptides vaccines as descripted in FIG. 26, which indicated as 1Y, 2Y, 3Y and 4Y here and with 3 weeks apart. […] And the mice were monitor at least twice per week, and the tumors were measured as shown in the data figures.
The tumor volumes were measured by calipers and calculated by formula: (length×width2)/2. […]

Q: Which mice survival (after day 45 of tumor challenge) does the source give for “KLLSLIKGVIVHRLEGVEGPSLVTSEHELTCQAEGYPKAE (KLLSLIKGVIVHRLEGVEGPSLVTSEHELTCQAEGYPKAE-NH2) [PD-L1(130)]” here?
A: The mice survival was “about 60%”.

Q: And the tumor volume (day 21 and day 28)?
A: Its tumor volume is “smaller tumor volume than PBS negative control group and both of mAbs positive control groups”.
